Reference: ChEMBL document CHEMBL3217654, “Beta-adrenergic receptor signaling by the isomers of isoproterenol and like drugs in retinal endothelial cells and Muller cells” (Medchemcomm, 2011)
One block for each molecule: values may come before it. Activity calls are given as the source filed them. No cut-off for these calls is given here.

Assays:
[1] = Reduction of high glucose-induced apoptosis in REC (unknown origin) assessed as decrease in caspase 3 level at 0.05 to 10 uM after 30 to 60 mins by ELISA; type: functional
[2] = Antiinflammatory activity in REC (unknown origin) assessed as increase of high glucose-induced TNFalpha level at 0.05 to 10 uM after 30 to 60 mins by ELISA; type: functional
Rattus norvegicus [3] = organism: Rattus norvegicus; experiment: Reduction of high glucose-induced apoptosis in rat rMC-1 cells assessed as decrease in caspase 3 level at 0.05 to 10 uM after 1 to 24 hrs by ELISA; type: functional, cell-based
Rattus norvegicus [4] = organism: Rattus norvegicus; experiment: Antiinflammatory activity in rat rMC-1 cells assessed as decrease of high glucose-induced TNFalpha level at 0.05 to 10 uM after 1 to 24 hrs by ELISA; type: functional, cell-based
[5] = Antiinflammatory activity in REC (unknown origin) assessed as effect on high glucose-induced TNFalpha level at 0.05 to 10 uM after 30 to 60 mins by ELISA; type: functional
[6] = Reduction of high glucose-induced apoptosis in REC (unknown origin) assessed as decrease in caspase 3 level at 10 uM after 15 to 45 mins by ELISA; type: functional
[7] = Antiinflammatory activity in REC (unknown origin) assessed as decrease of high glucose-induced TNFalpha level at 0.05 to 10 uM after 30 to 60 mins by ELISA; type: functional
[8] = biological target: Beta-1 adrenergic receptor (Rattus norvegicus) (UniProt P18090); experiment: Displacement of […]-iodocyanopindolol from beta1-adrenergic receptor in rat rMC-1 cells at 0.01 to 10000 nM; type: cell-based
Sequence of Beta-1 adrenergic receptor (Rattus norvegicus) (P18090 whole entry, looked up): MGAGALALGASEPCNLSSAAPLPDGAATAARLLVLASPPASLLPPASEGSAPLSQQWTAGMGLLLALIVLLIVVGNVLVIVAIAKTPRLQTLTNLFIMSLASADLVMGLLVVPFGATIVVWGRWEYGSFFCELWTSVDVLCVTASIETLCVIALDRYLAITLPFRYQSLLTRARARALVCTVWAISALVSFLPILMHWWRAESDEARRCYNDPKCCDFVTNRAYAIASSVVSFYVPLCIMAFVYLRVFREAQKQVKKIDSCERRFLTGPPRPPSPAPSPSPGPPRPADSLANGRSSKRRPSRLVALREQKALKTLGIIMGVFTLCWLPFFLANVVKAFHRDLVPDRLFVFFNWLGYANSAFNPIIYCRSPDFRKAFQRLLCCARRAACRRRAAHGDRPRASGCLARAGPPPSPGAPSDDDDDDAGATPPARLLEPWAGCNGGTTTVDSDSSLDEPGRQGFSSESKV

[9] = biological target: Beta-1 adrenergic receptor (Homo sapiens) (UniProt P08588); experiment: Displacement of […]-iodocyanopindolol from beta1-adrenergic receptor in REC (unknown origin) at 0.01 to 10000 nM
Sequence of Beta-1 adrenergic receptor (Homo sapiens) (P08588 whole entry, looked up): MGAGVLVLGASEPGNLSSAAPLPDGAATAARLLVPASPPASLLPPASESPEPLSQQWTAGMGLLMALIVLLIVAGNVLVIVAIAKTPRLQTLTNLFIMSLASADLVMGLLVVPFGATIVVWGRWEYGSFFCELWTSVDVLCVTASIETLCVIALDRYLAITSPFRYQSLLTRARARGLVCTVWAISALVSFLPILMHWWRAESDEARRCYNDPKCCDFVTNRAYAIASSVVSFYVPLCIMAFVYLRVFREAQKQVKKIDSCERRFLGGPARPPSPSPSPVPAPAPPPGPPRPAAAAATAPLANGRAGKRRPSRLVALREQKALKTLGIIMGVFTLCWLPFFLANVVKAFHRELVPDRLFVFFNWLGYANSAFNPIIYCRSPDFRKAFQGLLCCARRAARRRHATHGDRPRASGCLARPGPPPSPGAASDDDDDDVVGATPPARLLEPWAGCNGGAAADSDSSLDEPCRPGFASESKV

Structure (SMILES): O=C(NC[C@H](O)c1ccc(O)c(O)c1)N1CCOCC1
Activity [1]: inactive
Activity [2]: inactive
Activity (Rattus norvegicus [3]): inactive
Activity (Rattus norvegicus [4]): inactive

Structure (SMILES): Oc1ccc([C@@H](O)CNCCCN2CCOCC2)cc1O
Activity [1]: Active
Activity [5]: inactive
Activity (Rattus norvegicus [3]): inactive
Activity [6]: Active
Activity (Rattus norvegicus [4]): inactive

Structure (SMILES): CC(C)NC[C@H](O)c1ccc(O)c(O)c1 (stereo in doubt; R-1)
Activity [1]: Active
Activity [5]: inactive
Activity (Rattus norvegicus [3]): inactive
Activity [6]: Active
Activity (Rattus norvegicus [4]): Active

inhibition [8]: inactive
inhibition [9]: inactive
Structure (SMILES): O=C(NCCN(C[C@H](O)c1ccc(O)c(O)c1)C(=O)N1CCOCC1)N1CCOCC1
Activity [7]: Active
Activity [1]: Active
Activity (Rattus norvegicus [3]): inactive
Activity [6]: Active
Activity (Rattus norvegicus [4]): inactive

Structure (SMILES): CC(C)NC[C@H](O)c1ccc(O)c(O)c1 (stereo in doubt; S-1)
Activity [1]: inactive
Activity [5]: inactive
Activity (Rattus norvegicus [3]): inactive
Activity (Rattus norvegicus [4]): Active
